The test system of one test is tHTT. In words: Mutant and total HTT multiplex HTRF assay in Q48 HTT human embryonic stem cell line: tHTT. The class given is cell-based. The following applies: Q48 HTT hESC, 48 hours. Here is the method:
(§1) The multiplex assay is performed in human embryonic stem cells (hESCs) which have been derived by Genea Biocells from human blastocysts of HD donors. Cells are plated at a density of 10,000 cells/well into 384-well collagen coated plates and left to adhere for 24 hours, compounds 1 to 82 are then added to cells and incubated for 48 hours (37° C., 5% CO2), cells are then lysed and the contents split into a black 384-well plate.
(§2) The black plates have a combination of HTRF labeled monoclonal antibodies added which recognize discrete areas of the HTT protein, the 2B7-Tb “donor” antibody (0.2 ng/well) recognizes a sequence at the N-terminus of the protein, an MW1-Alexa488 “acceptor 1” antibody (30 ng/well) recognizes an area in the polyQ region, whereas a MAB2166-d2 “acceptor 2” antibody (6 ng/well) recognizes a sequence beyond the polyQ region. The 2B7 antibody was obtained from Coriell (CH02024), the MW1 antibody from Millipore (MABN2427), and the MAB2166 antibody from Millipore (1HU-4C8).
(§3) These detection reagents are incubated with the cell lysate at room temperature for 4-6 hours before having their fluorescence quantified at 615 nm (donor) and 535 nm and 665 nm (acceptor 1 and 2 respectively). The donor/acceptor ratio between these signals indicates the relative quantities of mHTT and tHTT proteins. As shown in the Table 1, compounds 1 to 82 as described therein and in Table 2, had the following pIC50 values.
On the technique in general: Time-resolved FRET reads energy transfer from a long-lived donor to a nearby acceptor.

A further test deals with mHTT. In words: Mutant and total HTT multiplex HTRF assay in Q48 HTT human embryonic stem cell line: mHTT. The format is cell-based. The note with it: Q48 HTT hESC, 48 hours. Here is the method:
as §1, §2, §3

Molecules are shown by their SMILES.

`CN(c1nnc(-c2cc(F)c(-c3cn[nH]c3)cc2Cl)s1)C1CC(C)(C)NC(C)(C)C1` [Compound 22, 5-(2-chloro-5-fluoro-4-(1H-pyrazol-4-yl)phenyl)-N-methyl-N-(2,2,6,6-tetramethylpiperidin-4-yl)-1,3,4-thiadiazol-2-amine]: the “tHTT pIC50” value with tHTT is 7.1125. In the test with mHTT, the “Rating (based on mHTT potency)” value was “**** (a pIC50 value between 7.0 and 7.5 is indicated by four stars (****))”; the “mHTT pIC50” value was found to be 7.1945.
Take `CN(c1ccc(-c2c(O)cc(-c3ccn(C)c(=O)c3)cc2F)nn1)C1CC(C)(C)NC(C)(C)C1` [Compound 23, 4-(3-fluoro-5-hydroxy-4-(6-(methyl(2,2,6,6-tetramethylpiperidin-4-yl)amino)pyridazin-3-yl)phenyl)-1-methylpyridin-2(1H)-one]: the “tHTT pIC50” value with tHTT stood at 7.17. Also, in the test with mHTT, the “Rating (based on mHTT potency)” value is “**** (a pIC50 value between 7.0 and 7.5 is indicated by four stars (****))”; the “mHTT pIC50” value came to 7.1895.
With `CCn1ccc2cc(O)c(-c3ccc(OC4CC(C)(C)NC(C)(C)C4)nn3)cc2c1=O` [Compound 24, 2-ethyl-6-hydroxy-7-(6-((2,2,6,6-tetramethylpiperidin-4-yl)oxy)pyridazin-3-yl)isoquinolin-1(2H)-one], the “tHTT pIC50” value in the test on tHTT is listed as 7.168. Further, in the test on mHTT, the “Rating (based on mHTT potency)” value is “**** (a pIC50 value between 7.0 and 7.5 is indicated by four stars (****))”; the “mHTT pIC50” value is on record as 7.186.
Turning to `CN(c1ccc(-c2cc3c(O)nccc3cc2O)nn1)C1CC(C)(C)NC(C)(C)C1` [Compound 25, 7-(6-(methyl(2,2,6,6-tetramethylpiperidin-4-yl)amino)pyridazin-3-yl)isoquinoline-1,6-diol], the “tHTT pIC50” value in the test on tHTT is reported as 7.128. For the same compound, in the test with mHTT, the “Rating (based on mHTT potency)” value is “**** (a pIC50 value between 7.0 and 7.5 is indicated by four stars (****))”; the “mHTT pIC50” value is recorded as 7.161.
For `CN(c1ccc(-c2ccc(-c3ccn(C4CC4)c(=O)c3)cc2O)nn1)C1CC(C)(C)NC(C)(C)C1` [Compound 26, 1-cyclopropyl-4-(3-hydroxy-4-(6-(methyl(2,2,6,6-tetramethylpiperidin-4-yl)amino)pyridazin-3-yl)phenyl)pyridin-2(1H)-one], the “tHTT pIC50” value in the test with tHTT was 7.0435. Further, in the test on mHTT, the “Rating (based on mHTT potency)” value was “**** (a pIC50 value between 7.0 and 7.5 is indicated by four stars (****))”; the “mHTT pIC50” value is listed as 7.1215.
With `Oc1cc(-c2cn[nH]c2)cc(F)c1-c1nnc(N2C[C@H]3CNC[C@H]3C2)s1` [Compound 27, 3-fluoro-2-(5-((3aR,6aS)-hexahydropyrrolo[3,4-c]pyrrol-2(1H)-yl)-1,3,4-thiadiazol-2-yl)-5-(1H-pyrazol-4-yl)phenol], the “tHTT pIC50” value with tHTT stood at 7.085. Besides, in the test on mHTT, the “Rating (based on mHTT potency)” value is “**** (a pIC50 value between 7.0 and 7.5 is indicated by four stars (****))”; the “mHTT pIC50” value was 7.1125.
With `CN(c1ccc(-c2cc3cnn(C)c3cc2O)nn1)C1CC(C)(C)NC(C)(C)C1` [Compound 28, 1-methyl-5-(6-(methyl(2,2,6,6-tetramethylpiperidin-4-yl)amino)pyridazin-3-yl)-1H-indazol-6-ol], the “tHTT pIC50” value in the test with tHTT is listed as 7.1045. Moreover, in the test on mHTT, the “Rating (based on mHTT potency)” value is “**** (a pIC50 value between 7.0 and 7.5 is indicated by four stars (****))”; the “mHTT pIC50” value is recorded as 7.111.
For the compound `Cn1ccc(-c2ccc(-c3ccc(OC4CC(C)(C)NC(C)(C)C4)nn3)c(O)c2)cc1=O` [Compound 29, 4-(3-hydroxy-4-(6-((2,2,6,6-tetramethylpiperidin-4-yl)oxy)pyridazin-3-yl)phenyl)-1-methylpyridin-2(1H)-one], the “tHTT pIC50” value with tHTT turned out to be 7.074. Also, in the test with mHTT, the “Rating (based on mHTT potency)” value is “**** (a pIC50 value between 7.0 and 7.5 is indicated by four stars (****))”; the “mHTT pIC50” value was found to be 7.0855.
As to `Cc1cc2cc(O)c(-c3ccc(N(C)C4CC(C)(C)NC(C)(C)C4)nn3)cc2cn1` [Compound 30, 3-methyl-7-(6-(methyl(2,2,6,6-tetramethylpiperidin-4-yl)amino)pyridazin-3-yl)isoquinolin-6-ol], the “tHTT pIC50” value with tHTT came out at 7.0835. For the same compound, in the test on mHTT, the “Rating (based on mHTT potency)” value is “**** (a pIC50 value between 7.0 and 7.5 is indicated by four stars (****))”; the “mHTT pIC50” value is listed as 7.08.
For `CN(c1ccc(-c2cc3ncccc3cc2O)nn1)C1CC(C)(C)NC(C)(C)C1` [Compound 31, 7-(6-(methyl(2,2,6,6-tetramethylpiperidin-4-yl)amino)pyridazin-3-yl)quinolin-6-ol], in the test on tHTT, the “tHTT pIC50” value is reported as 7.0015. Further, in the test with mHTT, the “Rating (based on mHTT potency)” value was “**** (a pIC50 value between 7.0 and 7.5 is indicated by four stars (****))”; the “mHTT pIC50” value was 7.0275.
As to `CN1C[C@@H]2CN(c3ccc(-c4ccc(-c5cn[nH]c5)cc4O)nn3)C[C@@H]2C1` [Compound 32, 2-(6-((3aR,6aS)-5-methylhexahydropyrrolo[3,4-c]pyrrol-2(1H)-yl)pyridazin-3-yl)-5-(1H-pyrazol-4-yl)phenol], the “tHTT pIC50” value with tHTT is 7.0625. In the test with mHTT, the “Rating (based on mHTT potency)” value was “**** (a pIC50 value between 7.0 and 7.5 is indicated by four stars (****))”; the “mHTT pIC50” value is recorded as 7.0085.
`CN(c1ccc(-c2cc3c(cc2O)-c2nc(N)sc2C3)nn1)C1CC(C)(C)NC(C)(C)C1` [Compound 33, 2-amino-6-(6-(methyl(2,2,6,6-tetramethylpiperidin-4-yl)amino)pyridazin-3-yl)-8H-indeno[1,2-d]thiazol-5-ol]: the “tHTT pIC50” value with tHTT is reported as 7.001. Moreover, in the test on mHTT, the “Rating (based on mHTT potency)” value is “**** (a pIC50 value between 7.0 and 7.5 is indicated by four stars (****))”; the “mHTT pIC50” value was 7.0085.
Consider `CC1(C)CC(Oc2ccc(-c3ccc(-n4cccn4)cc3O)nn2)CC(C)(C)N1` [Compound 34, 5-(1H-pyrazol-1-yl)-2-(6-(2,2,6,6-tetramethylpiperidin-4-yloxy)pyridazin-3-yl)phenol], for which the “tHTT pIC50” value in the test on tHTT is reported as 6.9475. In the test on mHTT, the “Rating (based on mHTT potency)” value was “**** (a pIC50 value between 7.0 and 7.5 is indicated by four stars (****))”; the “mHTT pIC50” value turned out to be 7.004.
Turning to `Cc1cc(-c2ccc(-c3ccc(N(C)C4CC(C)(C)NC(C)(C)C4)nn3)c(O)c2)ccn1` [Compound 35, 2-(6-(methyl(2,2,6,6-tetramethylpiperidin-4-yl)amino)pyridazin-3-yl)-5-(2-methylpyridin-4-yl)phenol], the “tHTT pIC50” value in the test on tHTT is recorded as 6.877. For the same compound, in the test with mHTT, the “Rating (based on mHTT potency)” value is “**** (a pIC50 value between 7.0 and 7.5 is indicated by four stars (****))”; the “mHTT pIC50” value is 7.003.
For `Oc1cc(-c2cn[nH]c2)cc(F)c1-c1nnc(N2CC3(CCNCC3)C2)s1` [Compound 36, 2-(5-(2,7-diazaspiro[3.5]nonan-2-yl)-1,3,4-thiadiazol-2-yl)-3-fluoro-5-(1H-pyrazol-4-yl)phenol], the “tHTT pIC50” value in the test on tHTT is 6.827. In the test on mHTT, the “Rating (based on mHTT potency)” value is “*** (a pIC50 value between 6.5 and 7.0 is indicated by three stars (***))”; the “mHTT pIC50” value is 6.996.
Regarding `CC1(C)CC(Oc2ccc(-c3cc4ccc(O)cc4cc3O)nn2)CC(C)(C)N1` [Compound 37, 3-(6-(2,2,6,6-tetramethylpiperidin-4-yloxy)pyridazin-3-yl)naphthalene-2,7-diol], the “tHTT pIC50” value with tHTT was found to be 7.121. Also, in the test on mHTT, the “Rating (based on mHTT potency)” value was “*** (a pIC50 value between 6.5 and 7.0 is indicated by three stars (***))”; the “mHTT pIC50” value turned out to be 6.98.
Turning to `Cc1cnc2cc(-c3ccc(N(C)C4CC(C)(C)NC(C)(C)C4)nn3)c(O)cc2n1` [Compound 38, 3-methyl-7-(6-(methyl(2,2,6,6-tetramethylpiperidin-4-yl)amino)pyridazin-3-yl)quinoxalin-6-ol], in the test on tHTT, the “tHTT pIC50” value is 7.0015. In addition, in the test on mHTT, the “Rating (based on mHTT potency)” value is “*** (a pIC50 value between 6.5 and 7.0 is indicated by three stars (***))”; the “mHTT pIC50” value stood at 6.9735.
Regarding `CN(c1ccc(-c2cc3nccnc3cc2O)nn1)C1CC(C)(C)NC(C)(C)C1` [Compound 39, 7-(6-(methyl(2,2,6,6-tetramethylpiperidin-4-yl)amino)pyridazin-3-yl)quinoxalin-6-ol], the “tHTT pIC50” value in the test with tHTT was found to be 6.9105. In the test with mHTT, the “Rating (based on mHTT potency)” value was “*** (a pIC50 value between 6.5 and 7.0 is indicated by three stars (***))”; the “mHTT pIC50” value was determined as 6.946.
As to `CN(c1ccc(-c2cc3cn(C)nc3cc2O)nn1)C1CC(C)(C)NC(C)(C)C1` [Compound 40, 2-methyl-5-(6-(methyl(2,2,6,6-tetramethylpiperidin-4-yl)amino)pyridazin-3-yl)-2H-indazol-6-ol], the “tHTT pIC50” value in the test with tHTT is 6.994. For the same compound, in the test on mHTT, the “Rating (based on mHTT potency)” value is “*** (a pIC50 value between 6.5 and 7.0 is indicated by three stars (***))”; the “mHTT pIC50” value amounted to 6.927.
Take `CN(c1ccc(-c2cc3ccccc3cc2O)nn1)C1CC(C)(C)NC(C)(C)C1` [Compound 41, 3-(6-(methyl(2,2,6,6-tetramethylpiperidin-4-yl)amino)pyridazin-3-yl)naphthalen-2-ol]: the “tHTT pIC50” value with tHTT amounted to 6.8125. For the same compound, in the test on mHTT, the “Rating (based on mHTT potency)” value is “*** (a pIC50 value between 6.5 and 7.0 is indicated by three stars (***))”; the “mHTT pIC50” value came out at 6.923.

Source of the values: US20240216369A1, “THE USE OF A SPLICING MODULATOR FOR A TREATMENT SLOWING PROGRESSION OF HUNTINGTON'S DISEASE” (Novartis AG, priority 2019, published 2024).
